From paper PMC7738871, “Covalent modification of Keap1 at Cys77 and Cys434 by pubescenoside a suppresses oxidative stress-induced NLRP3 inflammasome activation in myocardial ischemia-reperfusion injury” (Theranostics, 2021)

What was measured:
[1] = tested on: LAD-induced myocardial ischemia-reperfusion model in mice; assay: LAD-induced myocardial ischemia-reperfusion model; format: in vivo, mouse
Description: (§1) The experimental procedures and protocols were approved by the Committee on Ethical USE of Animals of International Institute for Translational Chinese Medicine, Guangzhou University of Chinese Medicine (No. IITCM-20180115). Adult male C57BL/6 mice were purchased from the Laboratory Animal Center, Sun Yat-Sen University (Guangzhou, Guangdong, China), and Nrf2 knockout mice were obtained from Riken. Adult male C57BL/6 or Nrf2 knockout mice were treated with 30 mg/kg PBA or an equal volume of vehicle 15 min prior to reperfusion. Mice were divided into 6 groups: (1) Wild-type sham (n = 10): C57BL/6 mice received vehicle, as the sham group; (2) Wild-type AMI/R group (n = 10): C57BL/6 mice received vehicle (i.p.) 15 min before reperfusion; (3) Wild-type AMI/R plus PBA group (n = 10): C57BL/6 mice received 30 mg/kg PBA (i.p.) 15 min before reperfusion; (4) Nrf2 knockout sham (n = 8) : Nrf2 knockout mice received vehicle (i.p.), as in the sham group; (5) Nrf2 knockout AMI/R group (n = 8): Nrf2 knockout mice received vehicle (i.p.) 15 min before reperfusion; (6) Nrf2 knockout AMI/R plus PBA group (n = 8): Nrf2 knockout mice received 30 mg/kg PBA (i.p.) 15 min before reperfusion. PBA was dissolved in 0.9% NaCl buffer containing 2% EtOH. The vehicle was 0.9% NaCl buffer containing 2% EtOH.
(§2) The C57BL/6 mice or Nrf2 knockout mice underwent myocardial ischemia-reperfusion injury as described previously. In brief, mice were anaesthetized by i.p. injection of sodium pentobarbital at a dose of 50 mg/kg and ventilated under a pressure-control VentStar R415 ventilator (RWD Life Science Inc., Shenzhen, China). Following thoracotomy between the 3rd and 4th intercostal spaces, the mouse heart was exposed. The LAD was ligated with an 8-0 silk suture and the PE10 tube for 30 min. PBA and vehicle were i.p. injected 15 min prior to reperfusion. After 30 min of ischemia, the suture with PE10 tube was removed. At the end of 24 h of reperfusion, the LAD was relegated, and 1% Evans blue dye was injected to measure the area at risk (AAR). The hearts of the mice were collected, and frozen at -80 °C for 10 min and cut into 5 slices. The slices were incubated with 1% 2,3,5-triphenyltetrazolium chloride (TTC, Santa Cruz, USA) at 37 °C for 15 min and fixed with 4% paraformaldehyde overnight. The slices were captured and the areas of AAR and IA were quantified by using ImageJ software.
(§3) Hemodynamic measurements were performed using a PV-loop catheter (Transonic Systems Inc., Ithaca, NY, USA). Hemodynamic measurements were analysed using Ponemah 7700 modules software according to a standardized protocol. The maximum rate of rise of left ventricular pressure increase (+dp/dtmax) and the maximum rate of rise of left ventricular pressure decrease (-dp/dtmax) were calculated for all mice.
Echocardiography was performed on mice at the end of reperfusion. In brief, mice were re-anesthetized with isoflurane and subjected to the Vevo 2100 System (VisualSonics Inc., Toronto, Canada). M-mode was used to obtain LV dimensions in diastole and systole according to the standard procedures and calculations. Left ventricular end systolic diameter (LVESD), left ventricular end diastolic diameter (LVEDD), left ventricular end systolic volume (LVSV) and left ventricular end diastolic volume (LVDV) were measured. And the left ventricular ejection fraction (LVEF) and left ventricular fractional shortening (LVFS) values were calculated using Vevostrain software as parameters indicating cardiac function.

[2] = tested on: Nrf2-/- mice under AMI/R injury; assay: LAD-induced AMI/R in Nrf2-/- mice; format: in vivo, mouse
Description: as §1, §2, §3

NLRP3 inflammasome = assay: OGD/R-induced NLRP3 inflammasome activation in primary cardiomyocytes; format: cell-based, mouse; settings: OGD 3 h, reperfusion 18 h, dose-dependent
Description: The heart was removed from the neonatal C57BL/6 mice and cut into 1 mm^3 pieces in ice […] buffer. The tissues were digested with the mixture of 0.125% trypsin (Gibco, 15090-046) and 0.1% type II collagenase (Gibco, 17101-015) 6 min at 37 °C for three times until the tissues were completely digested. The cells were harvested and seeded in a dish. After 90 min of incubation, the cell culture medium was collected and centrifuged. The centrifuged cardiomyocytes were harvested, seeded on 0.1 % gelatin-coated culture plates with DMEM containing 10% FBS and […] Brdu, and incubated in a 37°C incubator.
Total protein was isolated from H9c2 cells, primary mouse cardiomyocytes, RAW264.7 cells and heart tissue using 1X RIPA buffer containing phosphatase and proteinase inhibitors at 4 °C. […] After the membranes was washed by TBST buffer for three times, they were incubated with horseradish peroxidase (HRP)-conjugated secondary mouse or rabbit antibodies (1:3,000 dilution) at room temperature (RT) for 1.5 h and then detected by SuperEnhanced chemiluminescence (ECL) reaction reagents (GBCBIO Technologies Inc., Guangzhou, Guangdong, China). […] After letting the membranes stand for 1-2 min, the bands of the respective proteins were detected with the exposure time of 10 ~60 s.

[3] = 30 mg/kg i.p., 24 hours after AMI/R

With C=C(COC(=O)C=Cc1ccc(O)c(O)c1)C(O)COC1OC(CO)C(O)C(O)C1O (centres unmarked) [PBA, pubescenoside A] the “myofibrillar structure (H&E staining)” value ([1]; 30 mg/kg) was “preserved myofibrillar structure”, the “recruitment of inflammatory cells (H&E staining)” value ([1]; 30 mg/kg) was “reduced the recruitment of inflammatory cells” and the cardiac infarct size ([1]; 30 mg/kg i.p. 15 min before reperfusion, 30 min ischemia, 24 h reperfusion) was “significantly reduce”. For the same compound, the “level of CK-MB” value ([1]; 30 mg/kg i.p., 30 min ischemia, 24 h reperfusion, blood, ELISA) was “significantly reduce”, the “+dp/dtmax” value [1, 3] was “increasing” and the “-dp/dtmax” value [1, 3] was “increasing”. The LVEF [1, 3] was “increasing”, the LVESD [1, 3] was “decreasing” and the LVFS [1, 3] was “increasing”. The LVSV [1, 3] was “decreasing”, the “NLRP3 inflammasome activation in heart tissue” value ([1]; AMI/R-injured mice, western blot) was “attenuated” and the “inflammatory cells infiltration and disturbed myofibrillar structure (H&E staining)” value [2] was “could not suppress”. The cardioprotective effect ([2]; 30 mg/kg i.p., AMI/R) was “disappeared”, the “decrease effect of CK-MB level” value ([2]; 30 mg/kg i.p., AMI/R) was “blocked” and the “increase effect of -dp/dtmax and -dp/dtmax” value ([2]; 30 mg/kg i.p., AMI/R) was “blocked”. For the same compound, the “suppressive effect on the NLRP3 inflammasome in heart tissue” value ([2]; WB analysis) was “blocked” and the “OGD/R-induced inflammasome activation (NLRP3, cleaved-caspase1, mature IL-1β)” value (NLRP3 inflammasome) was “substantially inhibited”.
